# Data taken from patent publication US7547692B2, “Rifamycin analogs and uses thereof” (ActivBiotics Pharma, LLC, priority 2005, dated 2009).
# How the values were obtained:
# S. aureus = test: MIC assay, S. aureus; type: cell-based
# S. pneumo. = test: MIC assay, S. pneumo.; type: cell-based
# E. faecalis = test: MIC assay, E. faecalis; type: cell-based
# H. flu = test: MIC assay, H. flu; type: cell-based
# E. coli = test: MIC assay, E. coli; type: cell-based
Molecule,MIC S. aureus (S. aureus) [mg/L],MIC S. pneumo. (S. pneumo.) [mg/L],MIC E. faecalis (E. faecalis) [mg/L],MIC H. flu (H. flu) [mg/L],MIC E. coli (E. coli) [mg/L],melting point [°C]
3′-hydroxy-5′-(3-hydroxy-1-azetidinyl)benzoxazinorifamycin [Compound 1],0.002,0.00012,0.12,0.12,4,
CO[C@H]1/C=C/OC2(C)Oc3c(C)c(O)c4c(=O)c(c5oc6cc(N7CC8CC7CN8)cc(O)c6nc-5c4c3C2=O)NC(=O)/C(C)=C\C=C\[C@H](C)[C@H](O)[C@@H](C)[C@@H](O)[C@@H](C)[C@H](OC(C)=O)[C@@H]1C (some centres unmarked) [Compound 3],,,,,,> 330
CO[C@H]1/C=C/OC2(C)Oc3c(C)c(O)c4c(=O)c(c5oc6cc(N7CC8CCC7CN8)cc(O)c6nc-5c4c3C2=O)NC(=O)/C(C)=C\C=C\[C@H](C)[C@H](O)[C@@H](C)[C@@H](O)[C@@H](C)[C@H](OC(C)=O)[C@@H]1C (some centres unmarked) [Compound 4],,,,,,> 300
COC1C=COC2(C)Oc3c(C)c(O)c4c(=O)c(c5oc6cc(N7CC8CCC(C7)N8)cc(O)c6nc-5c4c3C2=O)NC(=O)C(C)=CC=CC(C)C(O)C(C)C(O)C(C)C(OC(C)=O)C1C (centres unmarked) [Compound 9],0.008,0.00012,1,2,>8,
COC1C=COC2(C)Oc3c(C)c(O)c4c(=O)c(c5oc6cc(N7CC8CCC(C7)N8)cc(O)c6nc-5c4c3C2=O)NC(=O)C(C)=CC=CC(C)C(O)C(C)C(O)C(C)C(O)C1C (centres unmarked) [Compound 10],0.015,0.001,0.12,0.25,4,
